US20120165403A1, “METHODS OF INHIBITING THE ACTIVITY OF HSP90 AND/OR ARYL HYDROCARBON RECEPTOR” (UNIVERSITY OF ROCHESTER, priority 2004, published 2012)

What was measured:
[1] = target: T1, ARNT (Mus musculus, UniProt P53762); test: Affinity chromatography on EGCG-conjugated Sepharose, in vitro translated ARNT; assay type: binding, murine; details: 35S-ARNT in vitro translated in RRL
T1 construct: made in house; host or cells: coupled transcription/translation in rabbit reticulocyte lysate (TNT, Promega), 35S-labelled
Source text: (§1) Murine AhR and ARNT cDNA (obtained from J. Whitlock and O. Hankinson, respectively) were inserted into pcDNA3 (Invitrogen, Carlsbad, Calif.). Chicken hsp90 constructs (FIG. 5), c90711hsp (wild-type), c90G94D (wild-type point mutant gly94→Asp (Grenert et al., J. Biol. Chem. 272:23843-23850 (1997), which is hereby incorporated by reference in its entirety), c90D92A (wild-type point mutant Asp92→Ala (Sullivan et al., J. Biol. Chem. 268:20373-20379 (1993), which is hereby incorporated by reference in its entirety), c90N221 (wild-type truncation mutant encoding a.a. 221-728 (Sullivan et al., J. Biol. Chem. 268:20373-20379 (1993), which is hereby incorporated by reference in its entirety)), c90N303 (a.a. 303-728) and c90N538 (a.a. 538-728) were kind gifts from Dr. D. Toft (Rochester, Minn.). The C-terminal truncation mutant c900507 (a.a. 1-221) was obtained from Dr. L. Neckers (Rockville, Md.) (Grenert et al., J. Biol. Chem. 272:23843-23850 (1997); Marcu et al., J. Biol. Chem. 275:37181-37186 (2000), which are hereby incorporated by reference in their entirety). Human p23 cDNA was excised from pQE80-p23 (obtained from W. Chan Stockton, Calif.) by sequential digests using the restriction enzymes Sad (3′-end) and BamHI (5′-end) and inserted into the similarly digested pET28a (Novagen, Madison, Wis.). […]

[2] = target: T2, AhR (Mus musculus, UniProt P30561); test: Affinity chromatography on EGCG-conjugated Sepharose, in vitro translated AhR; assay type: binding, murine; details: 35S-AhR in vitro translated in RRL
T2 construct: made in house; host or cells: coupled transcription/translation in rabbit reticulocyte lysate (TNT, Promega), 35S-labelled
T2 sequence (P30561 10-848): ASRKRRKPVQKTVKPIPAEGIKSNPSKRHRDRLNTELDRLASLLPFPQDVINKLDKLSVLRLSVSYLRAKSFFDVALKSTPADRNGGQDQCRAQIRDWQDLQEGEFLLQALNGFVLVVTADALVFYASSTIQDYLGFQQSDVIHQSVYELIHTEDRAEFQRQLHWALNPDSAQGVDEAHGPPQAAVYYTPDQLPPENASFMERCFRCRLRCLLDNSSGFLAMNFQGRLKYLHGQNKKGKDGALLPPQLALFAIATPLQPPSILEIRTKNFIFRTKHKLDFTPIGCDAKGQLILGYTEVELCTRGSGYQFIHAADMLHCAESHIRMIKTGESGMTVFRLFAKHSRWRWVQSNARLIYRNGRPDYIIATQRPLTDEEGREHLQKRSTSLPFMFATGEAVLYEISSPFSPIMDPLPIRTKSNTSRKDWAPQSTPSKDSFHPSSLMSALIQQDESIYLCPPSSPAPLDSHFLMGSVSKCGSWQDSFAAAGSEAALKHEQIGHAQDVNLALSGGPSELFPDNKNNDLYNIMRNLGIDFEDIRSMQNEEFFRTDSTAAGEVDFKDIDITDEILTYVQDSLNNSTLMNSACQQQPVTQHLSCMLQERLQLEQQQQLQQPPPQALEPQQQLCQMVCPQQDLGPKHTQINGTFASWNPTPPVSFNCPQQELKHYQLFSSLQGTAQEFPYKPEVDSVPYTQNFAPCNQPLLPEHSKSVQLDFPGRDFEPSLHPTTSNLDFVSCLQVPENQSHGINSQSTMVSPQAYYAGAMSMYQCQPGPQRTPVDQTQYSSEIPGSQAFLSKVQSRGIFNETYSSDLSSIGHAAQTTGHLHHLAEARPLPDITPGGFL
Source text: as §1

[3] = system: TCDD-mediated CYP1A1 gene induction; test: CYP1A1 gene induction in HepG2 cells; assay type: cell-based, human

T1 sequence (P53762 whole entry): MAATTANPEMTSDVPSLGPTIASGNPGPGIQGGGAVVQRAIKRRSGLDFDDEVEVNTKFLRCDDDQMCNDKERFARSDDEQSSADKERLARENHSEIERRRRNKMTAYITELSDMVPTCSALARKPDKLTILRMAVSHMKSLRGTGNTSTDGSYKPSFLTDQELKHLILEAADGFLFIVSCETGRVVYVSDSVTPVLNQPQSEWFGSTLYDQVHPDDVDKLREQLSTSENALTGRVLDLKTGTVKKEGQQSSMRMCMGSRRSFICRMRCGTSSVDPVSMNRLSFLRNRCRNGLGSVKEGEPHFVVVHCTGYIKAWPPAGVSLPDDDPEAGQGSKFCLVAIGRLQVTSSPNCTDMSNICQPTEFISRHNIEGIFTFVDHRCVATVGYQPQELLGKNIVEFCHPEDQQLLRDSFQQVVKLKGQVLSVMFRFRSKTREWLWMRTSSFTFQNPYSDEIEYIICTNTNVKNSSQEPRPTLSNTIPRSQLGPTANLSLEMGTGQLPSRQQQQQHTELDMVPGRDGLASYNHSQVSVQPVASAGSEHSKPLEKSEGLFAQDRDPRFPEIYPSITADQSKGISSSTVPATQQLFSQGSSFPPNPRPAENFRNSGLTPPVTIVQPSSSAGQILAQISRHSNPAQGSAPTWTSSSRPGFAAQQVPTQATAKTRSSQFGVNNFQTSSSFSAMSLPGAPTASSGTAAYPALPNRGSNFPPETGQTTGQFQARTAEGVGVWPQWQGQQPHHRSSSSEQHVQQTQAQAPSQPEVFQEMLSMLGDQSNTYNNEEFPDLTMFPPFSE

O=C(O[C@@H]1Cc2c(O)cc(O)cc2O[C@@H]1c1cc(O)c(O)c(O)c1)c1cc(O)c(O)c(O)c1 [EGCG, epigallocatechin gallate]
binding of ARNT to immobilized EGCG [1]: incapable of binding immobilized EGCG
binding of AhR to immobilized EGCG [2]: not able to bind immobilized EGCG
inhibition of TCDD-mediated CYP1A1 gene induction [3]: inhibited TCDD-mediated CYP1A1 gene induction
